The record followed here is US20170333591A9, “ABSORBENT ARTICLE COMPRISING MALODOR REDUCTION COMPOSITIONS” (The Procter & Gamble Company, priority 2014, published 2017).

The data set can be described thus: Log of liquid dish neat product liquid-air partition coefficient. It counts as physicochemical. To be noted: for Log of liquid dish neat product liquid-air partition coefficient (Comment Code): code letters K/L of the Comment Code.

As to `O=C1CCCC=CCCCCCCCCCC1` [Material 788], the “Comment Code: Log of liquid dish neat product liquid-air partition coefficient” value (from here on “Comment Code: Log”) is reported as “K (Log of liquid dish neat product liquid-air partition coefficient greater than or equal to 7)” and the “Log of liquid dish neat product liquid-air partition coefficient (Comment Code)” value (“Log … (Comment Code)” below) was “K (Log of liquid dish neat product liquid-air partition coefficient greater than or equal to 7)”.
For `C=Cc1ccc(O)cc1` [Material 789], the “Comment Code: Log” value is “K (Log of liquid dish neat product liquid-air partition coefficient greater than or equal to 7)”.
Consider `CC1=CCC(O)(C(C)C)CC1` (stereo not shown) [Material 791], for which the “Log … (Comment Code)” value is “K (Log of liquid dish neat product liquid-air partition coefficient greater than or equal to 7)”.
For `C=CCCC(=O)c1ccccc1` [Material 792], the “Log … (Comment Code)” value is reported as “K (Log of liquid dish neat product liquid-air partition coefficient greater than or equal to 7)”.
Take `CCc1ccc(OC)c(O)c1` [Material 797]: the “Comment Code: Log” value is “K (Log of liquid dish neat product liquid-air partition coefficient greater than or equal to 7)”.
Consider `CC1=CCC(O)(C(C)C)CC1` (stereo not shown) [Material 800], for which the “Log … (Comment Code)” value is listed as “K (Log of liquid dish neat product liquid-air partition coefficient greater than or equal to 7)”.
Take `COc1ccc(CCC(C)=O)cc1` [Material 803]: the “Log … (Comment Code)” value is reported as “K (Log of liquid dish neat product liquid-air partition coefficient greater than or equal to 7)”.
Turning to `CC1C(=O)CC2(C)CCCC(C)(C)C23CC13` (stereo not shown) [Material 804], the “Comment Code: Log” value is reported as “K (Log of liquid dish neat product liquid-air partition coefficient greater than or equal to 7)” and the “Log … (Comment Code)” value is “K (Log of liquid dish neat product liquid-air partition coefficient greater than or equal to 7)”.
Take `CCC=C1OC(=O)c2ccccc21` [Material 805]: the “Log … (Comment Code)” value is “K (Log of liquid dish neat product liquid-air partition coefficient greater than or equal to 7)”.
`CCCCCCCCCC=CC=O` [Material 806]: the “Log … (Comment Code)” value was “K (Log of liquid dish neat product liquid-air partition coefficient greater than or equal to 7)”.
In the case of `CC(CC=O)CCc1ccccc1` (stereo not shown) [Material 807], the “Log … (Comment Code)” value is reported as “K (Log of liquid dish neat product liquid-air partition coefficient greater than or equal to 7)”.
As for `Cc1n[nH]cc1-c1ccccc1` [Material 808], the “Comment Code: Log” value is recorded as “K (Log of liquid dish neat product liquid-air partition coefficient greater than or equal to 7)”.
As to `COc1cc(C)cc(O)c1` [Material 811], the “Comment Code: Log” value is recorded as “K (Log of liquid dish neat product liquid-air partition coefficient greater than or equal to 7)”.
Still for that read-out and setting: then `C=C(C=O)C(C)CCC=C(C)C` (stereo not shown) [Material 819], with “K (Log of liquid dish neat product liquid-air partition coefficient greater than or equal to 7)”.
For `CC(C)c1ccc(CCC=O)cc1` [Material 826], the “Log … (Comment Code)” value is “K (Log of liquid dish neat product liquid-air partition coefficient greater than or equal to 7)”.
As to `CCCCCCCCC=CC#N` [Material 827], the “Log … (Comment Code)” value is given as “K (Log of liquid dish neat product liquid-air partition coefficient greater than or equal to 7)”.
Still for that read-out and setting: under `CCCCCCCCC=CC=O` [Material 828] stands “K (Log of liquid dish neat product liquid-air partition coefficient greater than or equal to 7)”; under `CCCC(=O)OCCc1ccccc1` [Material 831], “K (Log of liquid dish neat product liquid-air partition coefficient greater than or equal to 7)”.
Turning to `CC(=O)OCCc1ccccc1` [Material 832], the “Comment Code: Log” value was “K (Log of liquid dish neat product liquid-air partition coefficient greater than or equal to 7)”.
Take `OCCOc1ccccc1` [Material 834]: the “Log … (Comment Code)” value was “K (Log of liquid dish neat product liquid-air partition coefficient greater than or equal to 7)”.
Consider `CCC(=O)OCCc1ccccc1` [Material 835], for which the “Comment Code: Log” value is given as “K (Log of liquid dish neat product liquid-air partition coefficient greater than or equal to 7)”.
Turning to `CCCCCCCC1(C)OCC(C)O1` (stereo not shown) [Material 838], the “Comment Code: Log” value is reported as “K (Log of liquid dish neat product liquid-air partition coefficient greater than or equal to 7)”.
As for `CCC(C)c1nccnc1OC` (stereo not shown) [Material 845], the “Comment Code: Log” value is reported as “K (Log of liquid dish neat product liquid-air partition coefficient greater than or equal to 7)”.
Consider `CNC(=O)C(C)(C(C)C)C(C)C` [Material 846], for which the “Comment Code: Log” value is recorded as “K (Log of liquid dish neat product liquid-air partition coefficient greater than or equal to 7)”.
In the case of `CC(C)Cc1ccc2ccccc2n1` [Material 849], the “Log … (Comment Code)” value is listed as “K (Log of liquid dish neat product liquid-air partition coefficient greater than or equal to 7)”.
In the case of `CCC=CCCC=CCO` [Material 865], the “Log … (Comment Code)” value is recorded as “K (Log of liquid dish neat product liquid-air partition coefficient greater than or equal to 7)”.
Take `CCCCCCCCCCO` [Material 868]: the “Log … (Comment Code)” value is “K (Log of liquid dish neat product liquid-air partition coefficient greater than or equal to 7)”.
Turning to `C=CCCCCCCCCCO` [Material 870], the “Log … (Comment Code)” value is “K (Log of liquid dish neat product liquid-air partition coefficient greater than or equal to 7)”.
Same read-out and setting: then `C=CCCCCCCCCC=O` [Material 871], with “K (Log of liquid dish neat product liquid-air partition coefficient greater than or equal to 7)”.
In the case of `CC1=C2CC(C(C)(C)O)CCC2(C)CCC1` (stereo not shown) [Material 872], the “Comment Code: Log” value is recorded as “K (Log of liquid dish neat product liquid-air partition coefficient greater than or equal to 7)” and the “Log … (Comment Code)” value is given as “K (Log of liquid dish neat product liquid-air partition coefficient greater than or equal to 7)”.
`CC=CC(=O)C1C(C)=CCCC1(C)C` (stereo not shown) [Material 880]: the “Comment Code: Log” value was “K (Log of liquid dish neat product liquid-air partition coefficient greater than or equal to 7)”.
As to `CC(=O)OC(C)CCC=C(C)CCC=C(C)C` (stereo not shown) [Material 881], the “Log … (Comment Code)” value was “K (Log of liquid dish neat product liquid-air partition coefficient greater than or equal to 7)”.
As to `CCCCCCCC/C=C\CC=O` [Material 884], the “Log … (Comment Code)” value is given as “K (Log of liquid dish neat product liquid-air partition coefficient greater than or equal to 7)”.
With `C=C[C@](C)(O)CCC=C(C)C` [Material 888], the “Comment Code: Log” value is “K (Log of liquid dish neat product liquid-air partition coefficient greater than or equal to 7)”.
For `CC(=O)OC(C)CC/C=C(\C)CCC=C(C)C` (stereo not shown) [Material 890], the “Log … (Comment Code)” value is on record as “K (Log of liquid dish neat product liquid-air partition coefficient greater than or equal to 7)”.
Still for that read-out and setting: under `C/C(=C/C#N)CCc1ccccc1` [Material 892] stands “K (Log of liquid dish neat product liquid-air partition coefficient greater than or equal to 7)”.
Consider `CC1CCC2(O1)C(C)(C)CCCC2(C)O` (stereo not shown) [Material 893], for which the “Log … (Comment Code)” value is “K (Log of liquid dish neat product liquid-air partition coefficient greater than or equal to 7)”.
In the case of `C/C(=C\C#N)CCc1ccccc1` [Material 894], the “Log … (Comment Code)” value is “K (Log of liquid dish neat product liquid-air partition coefficient greater than or equal to 7)”.
As for `CC(=CCC1CC=C(C)C1(C)C)CO` (stereo not shown) [Material 908], the “Log … (Comment Code)” value was “K (Log of liquid dish neat product liquid-air partition coefficient greater than or equal to 7)”.
Same read-out and setting: then `CC1=CC2CC(C3OCCO3)C1CC2C(C)C` (stereo not shown) [Material 912], with “K (Log of liquid dish neat product liquid-air partition coefficient greater than or equal to 7)”; and `C=C1CCCC(C)(C)C1C=C(C)C(C)=O` (stereo not shown) [Material 913], with “K (Log of liquid dish neat product liquid-air partition coefficient greater than or equal to 7)”.
As for `CC(C)c1cccc(C(C)CC=O)c1` (stereo not shown) [Material 914], the “Log … (Comment Code)” value is given as “K (Log of liquid dish neat product liquid-air partition coefficient greater than or equal to 7)”.
Same read-out and setting: then `C=CC(C)(CCC=C(C)C)OC(C)OCC` (stereo not shown) [Material 916], with “K (Log of liquid dish neat product liquid-air partition coefficient greater than or equal to 7)”.
Regarding `C=CCOC(=O)COC1CCCCC1` [Material 918], the “Comment Code: Log” value is given as “K (Log of liquid dish neat product liquid-air partition coefficient greater than or equal to 7)”.
Regarding `CCC(=O)OC1CC2CC1C1CC=CC21` (stereo not shown) [Material 919], the “Comment Code: Log” value is “K (Log of liquid dish neat product liquid-air partition coefficient greater than or equal to 7)” and the “Log … (Comment Code)” value is on record as “K (Log of liquid dish neat product liquid-air partition coefficient greater than or equal to 7)”.
For `CC1=C2CCC(C)C2CC(C(C)(C)O)CC1` (stereo not shown) [Material 920], the “Log … (Comment Code)” value is listed as “K (Log of liquid dish neat product liquid-air partition coefficient greater than or equal to 7)”.
Consider `CC12CCCC(C)(CC1)C2=NO` [Material 921], for which the “Comment Code: Log” value is “K (Log of liquid dish neat product liquid-air partition coefficient greater than or equal to 7)”.
As to `C/C=C/c1cc(OC)c(OC)cc1OC` [Material 924], the “Log … (Comment Code)” value is recorded as “K (Log of liquid dish neat product liquid-air partition coefficient greater than or equal to 7)”.
